Here are results for 16 compounds from US10259807B2, “1-(piperazin-1-yl)-2-([1,2,4]triazol-1-yl)-ethanone derivatives” (Idorsia Pharmaceuticals Ltd., priority 2013, dated 2019).

In one data set the target is T1, human CXCR3A (Homo sapiens, UniProt P49682).
T1 construct: expressed in transfected cells; host or cells: CHO-K1
T1 sequence (P49682 1-368): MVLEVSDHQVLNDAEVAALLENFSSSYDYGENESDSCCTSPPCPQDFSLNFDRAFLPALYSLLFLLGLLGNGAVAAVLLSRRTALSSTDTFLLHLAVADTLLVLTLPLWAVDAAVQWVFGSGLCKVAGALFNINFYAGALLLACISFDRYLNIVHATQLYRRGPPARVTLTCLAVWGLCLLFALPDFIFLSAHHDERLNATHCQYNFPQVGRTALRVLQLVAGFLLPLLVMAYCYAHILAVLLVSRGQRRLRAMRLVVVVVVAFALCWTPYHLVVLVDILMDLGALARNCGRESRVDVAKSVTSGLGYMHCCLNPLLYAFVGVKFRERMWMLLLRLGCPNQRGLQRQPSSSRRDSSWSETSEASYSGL
As to the kind of experiment: FLIPR assay (CXCL10-induced calcium signal in CHO-K1 cells). The data set is classed as cell-based. The conditions noted are these: CHO-K1 cells expressing human CXCR3A coupled to Galpha(16); CXCL10 agonist 20 nM; mean values. The method, then: A) FLIPR assay: The bioactivity of compounds is tested in a fluorometric imaging plate reader (FLIPR: Molecular Devices) using engineered CHO-K1 cells expressing the human CXCR3A (GenBank: AY242128) coupled to a G protein (Galpha(16)). Cells are plated the day prior to bioassay in F12 medium supplemented with 10% FBS and G418 and hygromycin antibiotics to maintain recombinant selection. […] Cells are washed free of excess dye and 60 microliter of wash buffer is added. Stock solutions of test compounds are made up at a concentration of 10 mM in DMSO, and serially diluted in dilution buffer to concentrations required for inhibition dose response curves. After a 10 minute incubation period at 37° C., 10 microliters of each compound dilution are transferred from a compound plate to the plate containing the recombinant cells in the FLIPR instrument according to the manufacturer's instructions. Following basal readings, 10 microliter CXCL10 agonist at a concentration of 20 nM (from Peprotech) is added, again using the FLIPR instrument. Changes in fluorescence are monitored before and after addition of the test compounds. Emission peak values above base level after CXCL10 addition are exported after base line subtraction. The program XLfit is used to fit the data to a single site dose response curve and to calculate IC50 values. The calculated IC50 values may fluctuate depending on the daily assay performance. Fluctuations of this kind are known to those skilled in the art.

The next data set concerns the target T2, hERG K channel (Homo sapiens, UniProt Q12809).
T2 construct: host or cells: CHO
As to the kind of experiment: hERG Q-Patch assay. The conditions noted are these: CHO cells expressing hERG, K+ tail current 3 min after application, mean of two or three experiments. The data set is classed as cell-based. The method, then: B) hERG Q-Patch assay: Compounds are evaluated for block of the hERG K channel using CHO cells stably expressing the hERG gene (accession number U04270, bSys, Witterswil. Switzerland) and the Patch robotic platform (Sophion, Ballerup, Denmark) in single-cell mode at room temperature. […] When the cells are ˜80% confluent (every 2-3 days), they are either split for further culture or used for electrophysiology. […] Cells are kept in suspension medium at 32-35° C. in the QPatch robot until use, at which time aliquots are transferred to the extracellular solution (in mM: NaCl 150; KCl 4; CaCl2 1.2; MgCl2 1; HEPES 10; pH 7.4 with NaOH) containing 0.3% v/v DMSO and applied to the test plates. K^+ currents are measured with the patch-voltage-clamp technique in the whole-cell configuration with the internal solution (in […]: KCl, 140; NaCl, 10; MgCl2, 1; HEPES, 10; EGTA, 5; pH=7.2 with KOH). […] K^+tail currents are produced from a holding voltage of −80 mV by a 500-ms depolarization to +20 mV followed by a 500-ms repolarization to −40 mV; tail current amplitudes are measured at the end of the repolarization to −40 mV. The pulse pattern is repeated every 10 sec during the experiment, baseline K^+ current is measured after 3 min in extracellular solution, test-solution containing compound is then applied, and K^+ current in presence of compound is measured 3 minutes after application to the cells.
A general note: Block of hERG is tested as a sign of cardiac risk.

T2 sequence (Q12809 whole entry): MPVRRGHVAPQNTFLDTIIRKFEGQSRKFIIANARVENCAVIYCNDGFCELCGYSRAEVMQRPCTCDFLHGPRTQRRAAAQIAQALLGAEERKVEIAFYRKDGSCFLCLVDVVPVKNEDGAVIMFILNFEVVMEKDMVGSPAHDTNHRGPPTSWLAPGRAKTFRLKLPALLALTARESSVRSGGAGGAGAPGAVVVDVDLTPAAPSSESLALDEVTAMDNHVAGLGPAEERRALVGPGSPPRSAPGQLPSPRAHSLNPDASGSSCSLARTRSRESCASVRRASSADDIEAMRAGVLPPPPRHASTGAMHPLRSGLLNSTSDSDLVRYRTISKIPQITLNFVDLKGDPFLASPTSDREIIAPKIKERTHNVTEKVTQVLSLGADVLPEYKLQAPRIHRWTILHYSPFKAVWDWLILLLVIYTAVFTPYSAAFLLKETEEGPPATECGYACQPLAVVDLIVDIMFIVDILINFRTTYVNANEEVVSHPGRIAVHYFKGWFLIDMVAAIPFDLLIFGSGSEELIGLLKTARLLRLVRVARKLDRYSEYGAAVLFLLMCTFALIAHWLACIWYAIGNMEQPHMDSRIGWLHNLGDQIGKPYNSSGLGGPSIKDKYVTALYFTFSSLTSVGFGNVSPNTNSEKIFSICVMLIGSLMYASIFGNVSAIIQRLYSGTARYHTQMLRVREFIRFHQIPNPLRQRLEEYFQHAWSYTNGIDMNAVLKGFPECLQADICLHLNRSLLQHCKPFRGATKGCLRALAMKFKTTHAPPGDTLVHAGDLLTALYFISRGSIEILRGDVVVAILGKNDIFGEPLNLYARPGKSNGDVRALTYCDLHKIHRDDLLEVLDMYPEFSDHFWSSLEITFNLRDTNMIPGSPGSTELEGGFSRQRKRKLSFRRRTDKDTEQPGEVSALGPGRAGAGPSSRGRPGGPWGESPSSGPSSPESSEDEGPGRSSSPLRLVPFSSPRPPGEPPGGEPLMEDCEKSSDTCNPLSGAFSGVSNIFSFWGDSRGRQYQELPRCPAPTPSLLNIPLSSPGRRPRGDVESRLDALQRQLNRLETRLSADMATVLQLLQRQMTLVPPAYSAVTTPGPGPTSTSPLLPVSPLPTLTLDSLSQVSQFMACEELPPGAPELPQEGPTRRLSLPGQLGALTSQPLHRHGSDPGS

For orientation: IC50 means the concentration needed to halve the response being measured. As to `Cc1nc(C)n(CC(=O)N2CCN(c3sc(C(F)(F)F)nc3-c3ccc4c(c3)CCO4)C[C@H]2C)n1` [Example 40, 1-{(R)-4-[4-(2,3-Dihydro-benzofuran-5-yl)-2-trifluoromethyl-thiazol-5-yl]-2-methyl-piperazin-1-yl}-2-(3,5-dimethyl-[1,2,4]triazol-1-yl)-ethanone], the IC50 on human CXCR3A was found to be 22 nM. In addition, the “% block” value came to 1% at hERG K channel (concentration 300 nM) and 25% at hERG K channel (concentration 3000 nM).
The like results for `COc1ccc(-c2nc(C(F)(F)F)sc2N2CCN(C(=O)Cn3nc(C)nc3C)[C@H](C)C2)cc1F` [Example 10, 2-(3,5-Dimethyl-[1,2,4]triazol-1-yl)-1-{(R)-4-[4-(3-fluoro-4-methoxy-phenyl)-2-trifluoromethyl-thiazol-5-yl]-2-methyl-piperazin-1-yl}-ethanone] were, in that order, 20 nM, 7% and 20%.
In the case of `CCc1nc(C)n(CC(=O)N2CCN(c3sc(C(F)(F)F)nc3-c3cnc(C(F)(F)F)nc3)C[C@H]2C)n1` (single isomer, unassigned) [Example 46], the IC50 on human CXCR3A turned out to be 1.6 nM. Moreover, the results for the “% block” value at hERG K channel (concentration 300 nM) and on hERG K channel (concentration 3000 nM) were 13% and 29%, respectively.
Consider `Cc1nc(C)n(CC(=O)N2CCN(c3sc(C(F)(F)F)nc3-c3cnc4c(c3)CCCO4)C[C@H]2C)n1` [Example 39, 1-{(R)-4-[4-(3,4-Dihydro-2H-pyrano[2,3-b]pyridin-6-yl)-2-trifluoromethyl-thiazol-5-yl]-2-methyl-piperazin-1-yl}-2-(3,5-dimethyl-[1,2,4]triazol-1-yl)-ethanone], for which the 50% inhibitory concentration (IC50) at human CXCR3A was 31 nM. The “% block” value on hERG K channel (concentration 300 nM) is recorded as 3%; at hERG K channel (concentration 3000 nM), 15%.
As for `Cc1nc(C)n(CC(=O)N2CCN(c3sc(C(F)(F)F)nc3-c3ccc(OC(C)C)cc3)C[C@H]2C)n1` [Example 2, 2-(3,5-Dimethyl-[1,2,4]triazol-1-yl)-1-{(R)-4-[4-(4-isopropoxy-phenyl)-2-trifluoromethyl-thiazol-5-yl]-2-methyl-piperazin-1-yl}-ethanone], the concentration for half-maximal inhibition (IC50) on human CXCR3A stood at 16 nM. Moreover, the “% block” value on hERG K channel (concentration 300 nM) is listed as 7%; at hERG K channel (concentration 3000 nM) it was 38%.
Taken in the same sequence, the figures for `CCOc1ncc(-c2nc(C(F)(F)F)sc2N2CCN(C(=O)Cn3nc(C)nc3C)[C@H](C)C2)c(OCC)n1` [Example 29, 1-{(R)-4-[4-(2,4-Diethoxy-pyrimidin-5-yl)-2-trifluoromethyl-thiazol-5-yl]-2-methyl-piperazin-1-yl}-2-(3,5-dimethyl-[1,2,4]triazol-1-yl)-ethanone] were 4.5 nM, −2% and 0%.
Taken in the same sequence, the figures for `CCOc1ccc(-c2nc(C(F)(F)F)sc2N2CCN(C(=O)Cn3nc(C)nc3C)[C@H](C)C2)cc1` [Example 31, 2-(3,5-Dimethyl-[1,2,4]triazol-1-yl)-1-{(R)-4-[4-(4-ethoxy-phenyl)-2-trifluoromethyl-thiazol-5-yl]-2-methyl-piperazin-1-yl}-ethanone] were 10 nM, 6% and 14%.
Regarding `Cc1nc(C)n(CC(=O)N2CCN(c3sc(C(F)(F)F)nc3-c3ccc(OCC(F)(F)F)cc3)C[C@H]2C)n1` [Example 4, 2-(3,5-Dimethyl-[1,2,4]triazol-1-yl)-1-((R)-2-methyl-4-{4-[4-(2,2,2-trifluoro-ethoxy)-phenyl]-2-trifluoromethyl-thiazol-5-yl}-piperazin-1-yl)-ethanone], the concentration for half-maximal inhibition (IC50) at human CXCR3A was determined as 12 nM. The “% block” value on hERG K channel (concentration 300 nM) was 25%; on hERG K channel (concentration 3000 nM), 54%.
The like results for `Cc1nc(CO)nn1CC(=O)N1CCN(c2sc(C(F)(F)F)nc2-c2cnc(C(F)(F)F)nc2)C[C@H]1C` [Example 44, 2-(3-Hydroxymethyl-5-methyl-[1,2,4]triazol-1-yl)-1-{(R)-2-methyl-4-[2-trifluoromethyl-4-(2-trifluoromethyl-pyrimidin-5-yl)-thiazol-5-yl]-piperazin-1-yl}-ethanone] were, in that order, 5.1 nM, −3% and −6%.
Consider `Cc1nc(C)n(CC(=O)N2CCN(c3sc(C(F)(F)F)nc3-c3ccc(OC(F)(F)F)cc3)C[C@H]2C)n1` [Example 3, 2-(3,5-Dimethyl-[1,2,4]triazol-1-yl)-1-{(R)-2-methyl-4-[4-(4-trifluoromethoxy-phenyl)-2-trifluoromethyl-thiazol-5-yl]-piperazin-1-yl}-ethanone], for which the IC50 at human CXCR3A amounted to 9.8 nM. In addition, the “% block” value at hERG K channel (concentration 300 nM) amounted to 19%; on hERG K channel (concentration 3000 nM), 60%.
The like results for `CCc1ccc(-c2nc(C(F)(F)F)sc2N2CCN(C(=O)Cn3nc(C)nc3C)[C@H](C)C2)cc1` [Example 9, 2-(3,5-Dimethyl-[1,2,4]triazol-1-yl)-1-{(R)-4-[4-(4-ethyl-phenyl)-2-trifluoromethyl-thiazol-5-yl]-2-methyl-piperazin-1-yl}-ethanone] were, in that order, 36 nM, 12% and 44%.
For the compound `Cc1nc(C)n(CC(=O)N2CCN(c3sc(C(F)(F)F)nc3-c3ccc4c(c3)OCO4)C[C@H]2C)n1` [Example 13, 1-[(R)-4-(4-Benzo[1,3]dioxol-5-yl-2-trifluoromethyl-thiazol-5-yl)-2-methyl-piperazin-1-yl]-2-(3,5-dimethyl-[1,2,4]triazol-1-yl)-ethanone], the concentration for half-maximal inhibition (IC50) at human CXCR3A amounted to 76 nM. Moreover, the “% block” value at hERG K channel (concentration 300 nM) amounted to 9%; on hERG K channel (concentration 3000 nM), 39%.
The like results for `CCOc1ncc(-c2nc(C(F)(F)F)sc2N2CCN(C(=O)Cn3nc(C)nc3C)CC2)cn1` [Example 35, 2-(3,5-Dimethyl-[1,2,4]triazol-1-yl)-1-{4-[4-(2-ethoxy-pyrimidin-5-yl)-2-trifluoromethyl-thiazol-5-yl]-piperazin-1-yl}-ethanone] were, in that order, 4.6 nM, 2% and 4%.
With `Cc1nc(C(C)(C)O)nn1CC(=O)N1CCN(c2sc(C(F)(F)F)nc2-c2cnc(C(F)(F)F)nc2)C[C@H]1C` [Example 48, 2-[3-(1-Hydroxy-1-methyl-ethyl)-5-methyl-[1,2,4]triazol-1-yl]-1-{(R)-2-methyl-4-[2-trifluoromethyl-4-(2-trifluoromethyl-pyrimidin-5-yl)-thiazol-5-yl]-piperazin-1-yl}-ethanone], on human CXCR3A, the concentration for half-maximal inhibition (IC50) worked out at 4.7 nM. Further, the results for the “% block” value at hERG K channel (concentration 300 nM) and on hERG K channel (concentration 3000 nM) were 1% and 2%, respectively.
Regarding `CCOc1ncc(-c2nc(C(F)(F)F)sc2N2CCN(C(=O)Cn3nc(C)nc3C)[C@@H](C)C2)cn1` [Example 34, 2-(3,5-Dimethyl-[1,2,4]triazol-1-yl)-1-{(S)-4-[4-(2-ethoxy-pyrimidin-5-yl)-2-trifluoromethyl-thiazol-5-yl]-2-methyl-piperazin-1-yl}-ethanone], the IC50 at human CXCR3A came to 5.7 nM. For the same compound, the entries for the “% block” value on hERG K channel (concentration 300 nM) and on hERG K channel (concentration 3000 nM) were 3% and 4%, respectively.
The like results for `Cc1ccc(-c2nc(C(F)(F)F)sc2N2CCN(C(=O)Cn3nc(C)nc3C)[C@H](C)C2)cc1` [Example 8, 2-(3,5-Dimethyl-[1,2,4]triazol-1-yl)-1-[(R)-2-methyl-4-(4-p-tolyl-2-trifluoromethyl-thiazol-5-yl)-piperazin-1-yl]-ethanone] were, in that order, 28 nM, 22% and 61%.
